{
  "source": "PubChem BioAssay (NCI)",
  "test_in_all_cases": "NCI-60 cell line screen, 48 h",
  "key": {"[1]": {"system": "CAKI-1 renal"}, "[2]": {"system": "EKVX NSCLC"}, "[3]": {"system": "MDA-MB-435"}, "[4]": {"system": "K-562 leukemia"}, "[5]": {"system": "IGROV1 ovarian"}, "[6]": {"system": "NCI-H23 lung"}, "[7]": {"system": "M14 melanoma"}, "[8]": {"system": "SR leukemia"}, "[9]": {"system": "SK-MEL-28 melanoma"}, "[10]": {"system": "SNB-19 CNS"}},
  "note": "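All cell lines were grown in 96-well plates and treated with compound for 48 hours. TGI: total growth inhibition.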",
  "data": [
    {"smiles": "c1ccc2c(c1)CC1c3[nH]c4ccccc4c3CCN21", "note": "(stereo not given)", "values": [
      {"measurement": "TGI", "setting": "[1]", "value": "> 10", "unit": "µM"},
      {"measurement": "TGI", "setting": "[2]", "value": "> 10", "unit": "µM"},
      {"measurement": "TGI", "setting": "[3]", "value": "> 10", "unit": "µM"},
      {"measurement": "TGI", "setting": "[4]", "value": "> 10", "unit": "µM"},
      {"measurement": "TGI", "setting": "[5]", "value": "> 10", "unit": "µM"},
      {"measurement": "TGI", "setting": "[6]", "value": "> 10", "unit": "µM"},
      {"measurement": "TGI", "setting": "[7]", "value": "> 10", "unit": "µM"},
      {"measurement": "TGI", "setting": "[8]", "value": "> 10", "unit": "µM"},
      {"measurement": "TGI", "setting": "[9]", "value": "> 10", "unit": "µM"},
      {"measurement": "TGI", "setting": "[10]", "value": "> 10", "unit": "µM"}
    ]},
    {"smiles": "COc1ccc(C2CC(c3c(C)nn(-c4ccccc4)c3-c3ccc(C)cc3O)=NN2c2ccccc2)cc1", "note": "(stereo not given)", "values": [
      {"measurement": "TGI", "setting": "[1]", "value": "> 100", "unit": "µM"},
      {"measurement": "TGI", "setting": "[2]", "value": "> 100", "unit": "µM"},
      {"measurement": "TGI", "setting": "[3]", "value": "> 100", "unit": "µM"},
      {"measurement": "TGI", "setting": "[4]", "value": "> 100", "unit": "µM"},
      {"measurement": "TGI", "setting": "[5]", "value": "> 100", "unit": "µM"},
      {"measurement": "TGI", "setting": "[6]", "value": "> 30.3", "unit": "µM"},
      {"measurement": "TGI", "setting": "[7]", "value": "> 100", "unit": "µM"},
      {"measurement": "TGI", "setting": "[8]", "value": "> 100", "unit": "µM"},
      {"measurement": "TGI", "setting": "[9]", "value": "> 100", "unit": "µM"},
      {"measurement": "TGI", "setting": "[10]", "value": "> 100", "unit": "µM"}
    ]},
    {"smiles": "CCOC(=O)c1c2c(n(C)c1-c1ccccc1)C(=O)C(C)=CC2=O", "values": [
      {"measurement": "TGI", "setting": "[1]", "value": 28.1, "unit": "µM"},
      {"measurement": "TGI", "setting": "[2]", "value": 20.5, "unit": "µM"},
      {"measurement": "TGI", "setting": "[3]", "value": 3.68, "unit": "µM"},
      {"measurement": "TGI", "setting": "[4]", "value": "> 33.2", "unit": "µM"},
      {"measurement": "TGI", "setting": "[5]", "value": 17.6, "unit": "µM"},
      {"measurement": "TGI", "setting": "[6]", "value": 29.7, "unit": "µM"},
      {"measurement": "TGI", "setting": "[7]", "value": 13.5, "unit": "µM"},
      {"measurement": "TGI", "setting": "[8]", "value": 9.39, "unit": "µM"},
      {"measurement": "TGI", "setting": "[9]", "value": 27.8, "unit": "µM"},
      {"measurement": "TGI", "setting": "[10]", "value": 26.7, "unit": "µM"}
    ]},
    {"smiles": "CC1=NN(c2nc(N)nc(/C(C#N)=C/c3ccncc3)n2)C(C)(C)C1", "values": [
      {"measurement": "TGI", "setting": "[1]", "value": "> 100", "unit": "µM"},
      {"measurement": "TGI", "setting": "[2]", "value": "> 100", "unit": "µM"},
      {"measurement": "TGI", "setting": "[3]", "value": "> 100", "unit": "µM"},
      {"measurement": "TGI", "setting": "[4]", "value": 37.9, "unit": "µM"},
      {"measurement": "TGI", "setting": "[5]", "value": "> 100", "unit": "µM"},
      {"measurement": "TGI", "setting": "[6]", "value": "> 100", "unit": "µM"},
      {"measurement": "TGI", "setting": "[7]", "value": "> 100", "unit": "µM"},
      {"measurement": "TGI", "setting": "[8]", "value": "> 100", "unit": "µM"},
      {"measurement": "TGI", "setting": "[9]", "value": "> 100", "unit": "µM"},
      {"measurement": "TGI", "setting": "[10]", "value": "> 100", "unit": "µM"}
    ]},
    {"smiles": "CC1=NN(c2ccc(C)cc2)C2(C1)SCC(=O)N2c1nc2ccccc2s1", "note": "(stereo not given)", "values": [
      {"measurement": "TGI", "setting": "[1]", "value": "> 100", "unit": "µM"},
      {"measurement": "TGI", "setting": "[2]", "value": 99.1, "unit": "µM"},
      {"measurement": "TGI", "setting": "[3]", "value": "> 100", "unit": "µM"},
      {"measurement": "TGI", "setting": "[4]", "value": "> 100", "unit": "µM"},
      {"measurement": "TGI", "setting": "[5]", "value": "> 100", "unit": "µM"},
      {"measurement": "TGI", "setting": "[6]", "value": 77.5, "unit": "µM"},
      {"measurement": "TGI", "setting": "[7]", "value": "> 100", "unit": "µM"},
      {"measurement": "TGI", "setting": "[8]", "value": 28.1, "unit": "µM"},
      {"measurement": "TGI", "setting": "[9]", "value": "> 100", "unit": "µM"},
      {"measurement": "TGI", "setting": "[10]", "value": "> 100", "unit": "µM"}
    ]},
    {"smiles": "O=C1CSC2(CC(/C=C/C=C/c3ccccc3)=NN2c2cccc(S(=O)(=O)O)c2)N1c1nc2ccccc2s1", "note": "(stereo not given)", "values": [
      {"measurement": "TGI", "setting": "[1]", "value": "> 100", "unit": "µM"},
      {"measurement": "TGI", "setting": "[2]", "value": "> 100", "unit": "µM"},
      {"measurement": "TGI", "setting": "[3]", "value": 55.6, "unit": "µM"},
      {"measurement": "TGI", "setting": "[4]", "value": "> 100", "unit": "µM"},
      {"measurement": "TGI", "setting": "[5]", "value": "> 100", "unit": "µM"},
      {"measurement": "TGI", "setting": "[6]", "value": "> 100", "unit": "µM"},
      {"measurement": "TGI", "setting": "[7]", "value": "> 100", "unit": "µM"},
      {"measurement": "TGI", "setting": "[8]", "value": 60.1, "unit": "µM"},
      {"measurement": "TGI", "setting": "[9]", "value": "> 100", "unit": "µM"},
      {"measurement": "TGI", "setting": "[10]", "value": "> 100", "unit": "µM"}
    ]},
    {"smiles": "Cc1cs/c(=N\\C(P(=O)(O)O)P(=O)(O)O)n1C", "values": [
      {"measurement": "TGI", "setting": "[1]", "value": "> 100", "unit": "µM"},
      {"measurement": "TGI", "setting": "[2]", "value": "> 100", "unit": "µM"},
      {"measurement": "TGI", "setting": "[3]", "value": "> 100", "unit": "µM"},
      {"measurement": "TGI", "setting": "[4]", "value": "> 100", "unit": "µM"},
      {"measurement": "TGI", "setting": "[5]", "value": "> 100", "unit": "µM"},
      {"measurement": "TGI", "setting": "[6]", "value": "> 100", "unit": "µM"},
      {"measurement": "TGI", "setting": "[7]", "value": "> 100", "unit": "µM"},
      {"measurement": "TGI", "setting": "[8]", "value": "> 100", "unit": "µM"},
      {"measurement": "TGI", "setting": "[9]", "value": "> 100", "unit": "µM"},
      {"measurement": "TGI", "setting": "[10]", "value": "> 100", "unit": "µM"}
    ]},
    {"smiles": "CN(C)CCCn1c2ccccc2c2cnccc21", "values": [
      {"measurement": "TGI", "setting": "[1]", "value": "> 100", "unit": "µM"},
      {"measurement": "TGI", "setting": "[2]", "value": "> 100", "unit": "µM"},
      {"measurement": "TGI", "setting": "[3]", "value": "> 100", "unit": "µM"},
      {"measurement": "TGI", "setting": "[4]", "value": "> 100", "unit": "µM"},
      {"measurement": "TGI", "setting": "[5]", "value": "> 100", "unit": "µM"},
      {"measurement": "TGI", "setting": "[6]", "value": "> 100", "unit": "µM"},
      {"measurement": "TGI", "setting": "[7]", "value": 33, "unit": "µM"},
      {"measurement": "TGI", "setting": "[8]", "value": 43.4, "unit": "µM"},
      {"measurement": "TGI", "setting": "[9]", "value": "> 100", "unit": "µM"},
      {"measurement": "TGI", "setting": "[10]", "value": "> 100", "unit": "µM"}
    ]}
  ]
}
